# In US6117840A, “CS-1 peptidomimetics, compositions and methods of using the same” (Cytel Corporation, priority 1997, dated 2000):
# Square brackets hold non-standard residues; d marks the D form. Peptide text beside a SMILES is read from it. * marks the point of attachment. PhAc = O=C(Cc1ccccc1)*
# Tests used:
# BALB/c mice = assay: Adoptive transfer delayed type hypersensitivity in mice (oxazolone); type: in vivo, mouse; conditions: for swelling at challenge site (in words): 6 mg/kg/day s.c. pump for 24 hours
# Description: An adoptive transfer delayedtype hypersensitivity murine model has been developed using splenic T cells primed to oxazolone. This model is described in Elices et al., Clin. Exp. Rheum., 11(Suppl. 8):577-580 (1993), whose procedures were followed here.
# Thus, BALB/c mice were shaved on the belly and painted (50 μl on the belly and 5 μl on each paw) with three percent oxazolone in acetone/olive oil (4:1) at days zero and 1. At day 5, the mice were sacrificed, their spleens removed, and splenic T cells were obtained via nylon wool columns.
# Normal saline or saline containing 25×10^6 /animal of the oxazoloneimmune T cells were separately injected into naive mice. The mic were then challenged by painting 10 μl of 2 percent oxazolone onto one ear each. All procedures were carried out under sterile conditions and in endotoxingfree buffers.
# Prior to challenge or saline injection, the mice were implanted with pumps that subcutaneously administered normal saline, normal saline containing the peptide N--phenylacetyl--Leu--Asp--Phe--D--Pro--NH2 or normal saline containing a peptide with a scrambled sequence continually at 6 mg/kg/day for a 24-hour time period. The swelling diameter at the site of challenge or saline injection was measured with a microcaliper 24 hours thereafter.
# An expanded study was carried out as described above except that a scrambled peptide control was not used using further inhibitor peptides o Table 1 with larger groups of mice. Statistical analyses were carried out versus injection of vehicle alone. Those results are shown below in Table 2.
# [1] = tested on: New Zealand white rabbits; assay: Rabbit cardiac allograft model; type: in vivo; conditions: for Expression on Coronary Arteries: ICAM-1 / Expression on Coronary Arteries: Macrophages / Expression on Coronary Arteries: T cells / Expression on Coronary Arteries: Total Fibronectin / Expression on Coronary Arteries: VCAM-1 / Vessel Intimal Thickening: Percent of Vessels / Vessel Intimal Thickening: Severity (Percent of Vessel area) / Expression on Coronary Arteries: MHC Class II: 1 mg/kg s.c., donor heart; for Expression on Coronary Arteries: MHC Class II: 7 to 8 days; as to Expression on Coronary Arteries: ICAM-1: key: -: negative; ±: minimal; +: little; ++: moderately abundant; +++: very abundant; as to Expression on Coronary Arteries: Macrophages: key: -: negative; ±: minimal; +: little; ++: moderately abundant; +++: very abundant; as to Expression on Coronary Arteries: T cells: key: -: negative; ±: minimal; +: little; ++: moderately abundant; +++: very abundant; as to Expression on Coronary Arteries: Total Fibronectin: key: -: negative; ±: minimal; +: little; ++: moderately abundant; +++: very abundant
# Source text: New Zealand white female rabbits (Charles River Lab., Saint Laurent, Quebec), between 3.5 and 4 kg underwent heterotopic cardiac transplant following an experimental protocol previously described [Alonso et al., Am. J. Pathol., 87:415-442 (1977); Clausell et al., Circulation, 89:2768-2779 (1994)] and approved by the Animal Care Committee of The Hospital for Sick Children, Toronto. The animals were […] to favor an HLA-mismatch, the host rabbits were Pasteurella-free and the donors, outbred animals. Both host and donor rabbits were fed Purina 5321-0.5 percent cholesterol diet (Research Diets Inc., New Brunswick, N.J.), a strategy that has proven useful in accelerating the process of allograft arteriopathy [Alonso et al., Am. J. Pathol., 87:415-442 (1977)]. The diet was commenced four days prior to the transplant and continued in the recipient of the transplant until the completion of the experimental period.
# The technique of heterotopic cardiac transplantation has been previously described [Clausell et al., Circulation, 89:2768-2779 (1994)]. Briefly, a vertical incision was performed in the anterior aspect of the neck of the recipient rabbit and the left common carotid artery and the ipsilateral external jugular vein were isolated. The cardiac allograft was placed in the neck by anastomosing the aorta end-to-side to the recipient's carotid artery and the pulmonary end-to-side to the recipient's external jugular vein, following a total period of ischemia for the donor hearts of approximately 30 minutes. Postoperative care was in compliance with the Principles of Laboratory Animal Care formulated by the Canadian National Society for Medical Research.
# Beginning the day of the transplant, the animals were randomized and treated with either scrambled peptide (control group) at 1 mg/kg s.c. or the inhibitor peptide at 1 mg/kg s.c. The doses of the peptides were empirically extrapolated to the in vivo model based on preliminary in vitro studies, of Table 1. No other immunosuppression therapy was administered. The grafts were monitored daily by palpation and maintained for 7 to 8 days, a previously described endpoint that was associated with myocardial rejection (impaired cardiac contractility) and development of the allograft arteriopathy in this model [Clausell et al., Circulation, 89:2768-2779 (1994)]. A total of fourteen animals were studied in the control (n=7) and treated (n=7) groups.
# The animals were sacrificed using a lethal dose of euthanol (480 mg i.v.) (MTC Pharmaceutical, Cambridge, ON), host and donor hearts were removed, and the coronary arteries were perfused with saline through the aorta, followed by light fixation by perfusion with 2 percent paraformaldehyde (Sigma, St, Louis, Mo.). […] Different sections of the hearts were either saved in 10 percent formalin (BDH Inc., Toronto, ON) for light microscopy studies or immediately frozen in O.T.C. Compound Tissue Tek (Miles Inc., Elkart, Ind.) for specific immunohistochemistry studies.
# Three different paraffin-embedded tissue sections from host and donor hearts from both control and treated rabbits were stained by the Movat pentachrome method for light microscopy. Morphometric analysis was performed using a Zeiss microscope attached to a computer-generated video analysis system (Perceptics Inc., NuVision software), as described in Clausell et al., Circulation, 89:2768-2779 (1994). The number of vessels with intimal lesions were counted in all three heart sections from each animal studied and are expressed as a percentage of the total vessel number.
# In the host hearts, 999 vessels in the control group and 1054 vessels in the treated group were analyzed. In the donor hearts, 827 vessels in the control group and 617 vessels in the treated group were analyzed. […]
# SJL/J mice = assay: Experimental autoimmune encephalomyelitis in mice; type: in vivo; conditions: 1 mg/mouse i.p. at days 8 and 9; versus scrambled control peptide
# Description: EAE was induced in female SJL/J mice (8 to 14 weeks old) by immunization on day zero with 50 μg of a peptide corresponding to positions 139-151 of PLP emulsified in a 1:1 mixture of PBS and complete Freund's adjuvant (CFA). Each mouse was injected with 0.2 ml of the adjuvant emulsion subcutaneously (s.c.) at two sites in the hind flank. All mice received 10^7 killed Bordetella pertussis units in 100 μl were injected intravenously 24 to 72 hours later.
# Mice were observed daily, beginning at day 8 for clinical signs of EAE, and disease was scored on a scale of 0-5 as: 0=no disease; 1=floppy tail; 2=moderate hind limb weakness; 3=paraparesis; 4=paraplegis with moderate forelimb weakness; 5=qualdriplegis or premoribund state.
# The inhibitor peptide N--phenylacetyl--Leu--Asp--Phe--D--Pro--NH2 was administered intraperitoneally at 1 mg/mouse in 0.2 ml of incomplete Freund's adjuvant at days 8 and 9. A peptide having a scrambled sequence [N--phenylacetyl--Asp--Leu--Phe--D--Pro--NH2 ] was similarly administered to serve as a control.
# Summed or averaged scores for clinical signs were plotted vs. time. The area under the resulting curves was calculated between day 8 and day 35 to calculate percentage inhibition of EAE by an inhibitor peptide. The percent inhibition was calculated as follows: [formula]
SMILES,swelling at challenge site (in words) (BALB/c mice),Expression on Coronary Arteries: ICAM-1 [1],Expression on Coronary Arteries: Macrophages [1],Expression on Coronary Arteries: T cells [1],Expression on Coronary Arteries: Total Fibronectin [1],Expression on Coronary Arteries: VCAM-1 [1],Vessel Intimal Thickening: Percent of Vessels [1],Vessel Intimal Thickening: Severity (Percent of Vessel area) [1],Expression on Coronary Arteries: MHC Class II [1],Baseline (rabbit own host heart) of incidence [1],Baseline (rabbit own host heart) of severity [1],"Percent Inhibition (BALB/c mice; expanded study, 6 mg/kg/day, versus vehicle)",clinical signs of EAE (SJL/J mice)
"CC(C)C[C@H](NC(=O)[C@H](CC(=O)O)NC(=O)Cc1ccccc1)C(=O)N[C@@H](Cc1ccccc1)C(=O)N1CCC[C@@H]1C(N)=O [X L D F p phenylacetyl amide scrambled, N--phenylacetyl--Asp--Leu--Phe--D--Pro--NH2, reference compound] (PhAc-DLF[dP]-NH2)",no reduction of inflammation,+,+,++,++,+,88%,36%,++,1%,12%,–,–
"CC(C)C[C@H](NC(=O)Cc1ccccc1)C(=O)N[C@@H](CC(=O)O)C(=O)N[C@@H](Cc1ccccc1)C(=O)N1CCC[C@@H]1C(N)=O [X L D F p phenylacetyl amide, N--phenylacetyl--Leu--Asp--Phe--D--Pro--NH2] (PhAc-LDF[dP]-NH2)",reduced thi type of CS1/VLA-4-mediated immunoinflammation,±,±,±,±,±,35%,16%,±,12%,12%,36%,marked improvement in clinical signs
